# Measurements taken from PubChem BioAssay (NCI).
#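 Method: 48-hour compound exposure of cells in 96-well plates, five concentrations, linear interpolation of endpoints. Here, GI50 denotes the concentration required for 50% inhibition of growth. TGI is the concentration that stops growth completely.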
# Tests used:
# Experiment in all cases: NCI tumour cell line growth inhibition, 48 h
# A549 NSCLC = test system: A549 NSCLC
# COLO 205 colon = test system: COLO 205 colon
# HOP-62 NSCLC = test system: HOP-62 NSCLC
# NCI-H23 lung = test system: NCI-H23 lung
# SF-539 CNS = test system: SF-539 CNS
# SK-MEL-2 melanoma = test system: SK-MEL-2 melanoma
# SK-MEL-28 melanoma = test system: SK-MEL-28 melanoma
# SK-OV-3 ovarian = test system: SK-OV-3 ovarian
# SN12C renal = test system: SN12C renal
# NCI-H522 lung = test system: NCI-H522 lung
Structure (SMILES),TGI (A549 NSCLC) [µM],TGI (COLO 205 colon) [µM],TGI (HOP-62 NSCLC) [µM],TGI (NCI-H23 lung) [µM],TGI (SF-539 CNS) [µM],TGI (SK-MEL-2 melanoma) [µM],TGI (SK-MEL-28 melanoma) [µM],TGI (SK-OV-3 ovarian) [µM],TGI (SN12C renal) [µM],TGI (NCI-H522 lung) [µM],GI50 (A549 NSCLC) [µM],GI50 (COLO 205 colon) [µM],GI50 (HOP-62 NSCLC) [µM],GI50 (NCI-H23 lung) [µM],GI50 (NCI-H522 lung) [µM],GI50 (SK-MEL-2 melanoma) [µM],GI50 (SK-MEL-28 melanoma) [µM],GI50 (SK-OV-3 ovarian) [µM],GI50 (SN12C renal) [µM],GI50 (SF-539 CNS) [µM]
CC#CC(=O)Nc1ccccc1CC(c1c[nH]c2ccccc12)c1c[nH]c2ccccc12,57.5,29.7,35.9,38.8,37.2,34.4,29.9,59.3,30,–,–,–,–,–,–,–,–,–,–,–
CN(C)C(=S)/N=c1\ss/c(=N\C(=S)N(C)C)n1-c1ccc2c(c1)OCO2,> 100,–,> 100,> 100,> 100,> 100,> 100,> 100,> 100,> 100,–,–,–,–,–,–,–,–,–,–
N#Cc1cnsc1,> 100,> 100,> 100,> 100,> 100,> 100,> 100,> 100,> 100,–,–,–,–,–,–,–,–,–,–,–
O=C(/C=C/c1ccccc1Cl)c1ccccc1Cl,61.5,44.8,> 100,52.9,36.7,–,36.5,> 100,41.4,38.1,–,–,–,–,–,–,–,–,–,–
CC(C)=[CH][Sb]([Br])([CH]=C(C)C)([CH]=C(C)C)[CH]=C(C)C,> 100,5.89,> 100,46.7,–,> 100,> 100,8.83,> 100,20.2,19.1,1.93,40.3,6.12,1.5,15.4,11.3,2.5,24.7,–
COc1cc2c3c(n(CCCCl)c(=O)c2cc1OC)-c1ccccc1C3=O,> 100,–,44.5,> 100,> 100,> 100,–,> 100,> 100,> 100,> 100,–,4.49,97.3,5.31,> 100,–,> 100,> 100,14.1
CCCCCCCCCCCCCCCCOP(=O)(O)Oc1ccc(/C=C\c2ccc(OP(=O)(O)OCCCCCCCCCCCCCCCC)cc2)cc1,> 100,33.6,> 100,> 100,–,> 100,> 100,> 100,> 100,> 100,–,–,–,–,–,–,–,–,–,–
COc1cc(-c2c(C#N)c(N)n3c(nc4ccccc43)c2C#N)cc(Br)c1OC,–,> 100,> 100,–,> 100,> 100,> 100,> 100,–,> 100,–,> 100,> 100,–,79.7,47.5,> 100,> 100,–,> 100
CCc1cccc(C)c1NC(C)=O,> 100,–,> 100,> 100,> 100,> 100,> 100,> 100,–,–,–,–,–,–,–,–,–,–,–,–
N#CCCN(CCC#N)c1ccc(/C=C2\N=C(CN3C(=O)c4ccccc4C3=O)OC2=O)cc1,> 100,–,> 100,–,> 100,> 100,> 100,> 100,> 100,> 100,–,–,–,–,–,–,–,–,–,–
Cc1cc(C)cc(Nc2cc(C)nc3nc(C(F)(F)F)nn23)c1,–,> 100,> 100,> 100,> 100,> 100,> 100,> 100,> 100,–,–,> 100,44,> 100,–,> 100,> 100,81.5,> 100,38.9
CSc1ccc(/C=C2/C[N+](C)(C)C/C(=C/c3ccc(SC)cc3)C2=O)cc1,> 100,17.8,–,–,34,36.2,20.9,–,21.2,21.3,–,–,–,–,–,–,–,–,–,–
N#CCCN(CCC#N)c1ccc(C(=O)NN)cc1,> 100,> 100,> 100,> 100,> 100,–,> 100,> 100,> 100,> 100,–,–,–,–,–,–,–,–,–,–
CC(C)=CC(=O)N1CCN(C(=O)C=C(C)C)CC1,> 100,–,> 100,> 100,> 100,–,> 100,> 100,> 100,> 100,–,–,–,–,–,–,–,–,–,–
NCCCNCCSSCCCCS(=O)O,> 100,35.7,> 100,43.5,> 100,–,55.2,> 100,> 100,32.3,–,–,–,–,–,–,–,–,–,–
Cc1cccc(C(C)(C)C)c1NC(=O)CCc1n[nH]c(=S)o1,> 100,47.6,> 100,> 100,> 100,–,> 100,> 100,> 100,> 100,–,–,–,–,–,–,–,–,–,–
CSc1nc(NC2OC(COC(C)=O)C(OC(C)=O)C(OC(C)=O)C2OC(C)=O)c2c(OC(C)=O)c(C)c(=O)oc2n1 (stereo not drawn),> 100,> 100,> 100,> 100,> 100,> 100,–,> 100,> 100,–,–,–,–,–,–,–,–,–,–,–
Cc1c2c(nn1-c1ccc(S(=O)(=O)/N=C3\SCC(=O)N3C(=O)c3ccccc3)cc1)-c1ccccc1CC2,> 100,–,> 100,73.2,–,> 100,> 100,–,45.8,> 100,> 100,–,33.5,27.7,96.2,> 100,52.5,–,19.2,–
N#C/C(C(=S)Nc1ccccc1)=C1/NN=C2c3ccccc3C(=O)NN21,> 100,> 100,> 100,–,40.9,53.8,97.7,59.8,> 100,63.3,34,24.9,44.4,–,11.8,21,25.3,19.6,40.7,18.7
CCCCn1c(-c2ccc(C(=O)O/N=C(\N)c3ccc(OC)cc3)cc2)nc(-c2ccccc2)c1-c1ccccc1,3.75,–,–,–,3.24,8.36,> 100,> 100,4.46,–,1.21,–,–,–,–,2.75,2.75,3.76,1.84,1.67
